Laboratory results reported in patent US12624350B2, “High-throughput single-nuclei and single-cell libraries and methods of making and of using” (ILLUMINA, INC., priority 2019, dated 2026).

System: HEK293T cells
Assay: flavopiridol time course, sci-RNA-seq with hash ladder
Assay type: cell-based, human
Details: 300 nM, longest exposure times
Description: For the flavopiridol time course experiment, HEK293T cells were seeded onto a 6-well culture plate at a density of 4×10^5 cells per well. For the HDAC inhibitor time course and HDAC inhibitor and Dexamethasone co-treatment experiments, A549 cells were seeded onto a 96-well culture plate at a density of 2.5×10^4 cells per well.
The cells were grown for 24 hours after they were seeded onto the cell culture plates. For the flavopiridol time course experiment, 0.9 uL of 1 mM flavopiridol was added to each 6 well to attain final concentration of 300 nM. […]
The capture of hash ladder by nuclei is determined by factors including, but not limited to, sample processing and sequencing depth. […] We empirically determined that the ladder should be constructed so that around 6 million hash molecules are captured per nuclei (assuming that each nucleus takes up equal amount of hash molecules in the solution) to obtain a median hash UMI count of 1,000-5,000. […]
For the harvest of cells, media was removed and cells were washed with DPBS and dissociated off the plate using trypLE. […] Cells were then counted with a hemocytometer using 0.4% Trypan Blue. […]
Isolated and hashed nuclei were then permeabilized in permeabilization buffer (0.25% Triton-X in NSB) for 3 minutes on ice and then spun down. […] Cell counts were obtained by staining nuclei with 0.4% Trypan Blue (Sigma-Aldrich) and counted using a hemocytometer. […]

Compound: CN1CC[C@H](c2c(O)cc(O)c3c(=O)cc(-c4ccccc4Cl)oc23)[C@H](O)C1 [flavopiridol]
- RNA recovery per-cell (total RNA UMI counts): greatest reduction in RNA recovery per-cell
